This is an account of results in PubChem BioAssay (NCI).

Holding throughout (assay): inhibition of tumour cell growth, NCI panel, 48 h
Experiment [1] deals with HCC-2998 colon.
In experiment [2] the test system is PC-3 prostate.
The test system of experiment [3] is UO-31 renal.
In experiment [4] the test system is NCI-H460 lung.
Experiment [5] deals with EKVX NSCLC.
In experiment [6] the test system is K-562 leukemia.
Experiment [7] deals with HS 578T breast.
The subject of experiment [8] is SW-620 colon.
For experiment [9], the system named is M14 melanoma.
Experiment [10] deals with MALME-3M melanoma.

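The compound was tested at five concentrations on cells cultured in 96-well plates, with a 48-hour exposure period. The concentration for 50% growth inhibition is given as GI50. TGI: total growth inhibition.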

For the compound `COc1cc2oc3c(c(=O)c2c(O)c1/C=C/C(C)C)C(C=C(C)C)Oc1cc(O)ccc1-3` (stereo unspecified), the TGI in [1] was found to be 25.2 µM; in [2] it was 29.4 µM; in experiment [3], 25.2 µM; in experiment [4], 30.9 µM; in experiment [5] it was 30.3 µM; in experiment [6], 24.2 µM. Further, the TGI turned out to be 38.2 µM in [7], 32.3 µM in [8], 27.3 µM in [9] and 38.9 µM in experiment [10].
Regarding `COc1ccc(CCN2CCC(CN(C)Cc3cnn(-c4ccccc4)c3)CC2)cc1`, the GI50 in experiment [1] was 5.13 µM; in experiment [2], 25.1 µM; in experiment [3] it was 3.37 µM; in experiment [4] it was 18.7 µM; in experiment [6], 3.14 µM; in experiment [7] it was 13.5 µM. Further, the GI50 in experiment [8] was 16.5 µM; in [10], 2.08 µM. Further, the TGI in experiment [1] was 18.1 µM; in experiment [2], > 100 µM; in experiment [3], 16.2 µM; in [4] it was 39.2 µM; in [6], 10.9 µM; in [7], 32.6 µM. The TGI was found to be 33.6 µM in experiment [8] and 4.29 µM in [10].
Consider `CCN1C(=NCCO)NS(=O)(=O)c2ccccc21`, for which the TGI in experiment [1], in experiment [2], in experiment [3], in experiment [4], in experiment [5] and in experiment [6] was > 100 µM each time. Also, the TGI in experiment [7], in [8] and in experiment [9] was > 100 µM each time.
Consider `COc1c(N2CCN(CN3C(=O)C(=O)c4cc(Cl)ccc43)C(C)C2)c(F)cc2c(=O)c(C(=O)O)cn(C3CC3)c12` (stereo unspecified), for which the GI50 in [2] was 10.8 µM; in experiment [3] it was > 100 µM; in experiment [4], 30.6 µM; in experiment [5], 13.7 µM; in experiment [6], 14 µM; in [7], 30.4 µM. The results for the GI50 in experiment [8] and in [9] were 14.2 µM and 69.6 µM, respectively. The TGI in experiment [2], in experiment [3], in [4], in experiment [5], in experiment [6] and in experiment [7] was > 100 µM throughout. The values for the TGI in experiment [8] and in experiment [9] were 75.8 µM and > 100 µM, respectively.
`COC(=O)[C@H](Cc1cn(C)cn1)NC(=O)[C@H](C)NC(=O)Nc1cc(C(F)(F)F)cc(C(F)(F)F)c1`: the GI50 in experiment [1], in experiment [2], in [3], in experiment [4], in experiment [6] and in experiment [7] was > 10 µM in each case. Moreover, the GI50 in experiment [8], in experiment [9] and in experiment [10] was > 10 µM each time. Also, the TGI in [1], in experiment [2], in experiment [3], in experiment [4], in [6] and in experiment [7] was > 10 µM each time. Also, the TGI in experiment [8], in experiment [9] and in [10] was > 10 µM throughout.
Regarding `C=Cn1c([N+](=O)[O-])cnc1/C=C/c1ccc(C(=O)OCCN2CCOCC2)cc1`, the TGI in experiment [2], in [4], in experiment [5], in experiment [6], in experiment [7] and in experiment [8] was > 100 µM throughout. Also, the TGI in [9] and in experiment [10] was > 100 µM in each case.
`CCCCOC1OC(COC(=O)C(C)C)C(OC(=O)C(C)C)C(O)C1OC1OC(C)C(OC(=O)CCC)C(OC(=O)C(C)C)C1O` (stereo unspecified): the GI50 in experiment [2] was 8.35 µM; in [3] it was 16.8 µM; in experiment [4], 11.6 µM; in experiment [5] it was 12.5 µM; in experiment [6], 3.09 µM; in experiment [7], 20.7 µM. The GI50 was 14.7 µM in experiment [8] and 19.5 µM in [10]. In addition, the TGI in experiment [2] amounted to 20.7 µM; in experiment [3], 32.2 µM; in [4] it was 27.8 µM; in [5], 25.2 µM; in [6] it was 14.3 µM; in experiment [7] it was 39.7 µM. The TGI was 27.8 µM in experiment [8] and 35.2 µM in [10].
As for `COc1cc2c(c(OC)c1OC)-c1ccc(N=NC(N)=S)c(=O)cc1[C@@H](NC(C)=O)CC2`, the GI50 is 0.311 µM in experiment [1]; 0.617 µM in [2]; 6.92 µM in experiment [3]; 0.418 µM in experiment [4]; > 100 µM in experiment [5]; 0.425 µM in experiment [6]. The GI50 is 0.294 µM in experiment [7] and 0.421 µM in [8]. In addition, the TGI in [1] was 1.76 µM; in [2] it was > 100 µM; in experiment [3] it was > 100 µM; in experiment [4], 12.2 µM; in experiment [5], > 100 µM; in experiment [6], > 100 µM. Further, the TGI in experiment [8] and in [10] was > 100 µM throughout.
Regarding `Cn1cc(C2=C(Nc3ccccc3)C(=O)NC2=O)c2ccccc21`, the GI50 in experiment [1] was > 25 µM; in [2], > 25 µM; in [3] it was > 19.5 µM; in experiment [4], > 25 µM; in experiment [6], > 25 µM; in experiment [7], > 25 µM. The GI50 in experiment [8], in [9] and in experiment [10] was > 25 µM each time. The TGI in experiment [1], in experiment [2], in [3], in [4], in experiment [6] and in [7] was > 25 µM each time. Further, the TGI in [8], in experiment [9] and in experiment [10] was > 25 µM throughout.
In the case of `O=C1c2cccnc2C(=O)c2c1c(C(=O)OCCCN1CCCCC1)c1ccccn21`, the GI50 in experiment [2] was < 0.0183 µM; in experiment [3], < 0.01 µM; in experiment [4] it was < 0.01 µM; in experiment [5] it was 0.0351 µM; in [6], < 0.0144 µM; in [7], < 0.0178 µM. Also, the figures for the GI50 in experiment [8], in experiment [9] and in experiment [10] were < 0.01 µM, < 0.01 µM and < 0.0158 µM, respectively. The TGI in experiment [2] is 0.389 µM; in experiment [3], < 0.01 µM; in experiment [4] it was 0.0122 µM; in experiment [5], 0.253 µM; in experiment [7], 0.132 µM; in experiment [8] it was < 0.0192 µM. Also, the figures for the TGI in experiment [9] and in [10] were 0.0384 µM and 0.0682 µM, respectively.
Turning to `O=C(CC1C=Cc2ccccc2N1C(=O)c1ccccc1)c1ccccc1` (stereo unspecified), the TGI in [2] is 96.6 µM; in experiment [3], > 100 µM; in experiment [4], > 100 µM; in [5], 47.4 µM; in [6], > 100 µM; in experiment [7], 67.4 µM. Besides, the TGI is > 100 µM in [8], 65.6 µM in experiment [9] and 61 µM in [10].
As to `Cc1ccc(-n2nnnc2-c2cnc(N3CCOCC3)nc2-c2cccc(C(F)(F)F)c2)cc1`, the GI50 in experiment [1] is 0.992 µM; in experiment [2] it was 1.44 µM; in [3], 1.14 µM; in experiment [4] it was 2 µM; in experiment [5] it was 3.93 µM; in [6], 1.96 µM. In addition, the GI50 in experiment [7] was 1.27 µM; in [8] it was 1.93 µM; in [9] it was 1.08 µM. Besides, the TGI in [1] is 2.17 µM; in experiment [2], 3.93 µM; in experiment [4] it was > 22.4 µM; in [5] it was > 50 µM; in experiment [6], > 22.6 µM; in experiment [7] it was > 13.8 µM. Moreover, the TGI in experiment [8] is > 25.1 µM; in experiment [9], 2.69 µM.
Regarding `Nc1nc(N)c2nc3c(nc2n1)CCCCCCCCCC3`, the GI50 in [1] is 3.83 µM; in experiment [2], 5.73 µM; in experiment [3], 1.88 µM; in [4], 0.358 µM; in [6] it was 0.43 µM; in [7], 3.63 µM. Besides, the GI50 in [8] was 0.553 µM; in experiment [9], 0.544 µM; in experiment [10] it was 4.48 µM. Also, the TGI in experiment [1], in [2], in experiment [3], in experiment [4], in experiment [6] and in experiment [7] was > 100 µM each time. Besides, the TGI in [8], in experiment [9] and in experiment [10] was > 100 µM each time.
For the compound `CCOc1ccc2c(c1)c(CC(=O)O)cn2C`, the TGI in experiment [1], in experiment [2], in [3], in [4], in experiment [5] and in experiment [6] was > 100 µM throughout. The TGI in experiment [7], in [9] and in experiment [10] was > 100 µM throughout.
Regarding `O=[N+]([O-])c1cc2no[n+]([O-])c2cc1N1CCCCC1`, the TGI in experiment [1] stood at 33.1 µM; in experiment [2] it was 5.68 µM; in [3], 6.16 µM; in experiment [4] it was 56.6 µM; in experiment [5], 8.98 µM; in experiment [6], 7.98 µM. Moreover, the TGI is 72.5 µM in experiment [7], > 100 µM in [8] and 7.19 µM in [9].
Regarding `COc1ccc(-c2csc(NC(=O)CN3CCN(c4cc5c(cc4F)c(=O)c(C(=O)O)cn5C4CC4)CC3)n2)cc1`, the GI50 was 4.8 µM in experiment [1]; 3.82 µM in [2]; 3.37 µM in experiment [3]; 3.18 µM in experiment [4]; 4.39 µM in experiment [5]; 9.82 µM in experiment [7]. Also, the GI50 in experiment [8] is 3.9 µM; in experiment [9] it was 4.1 µM; in [10] it was 2.37 µM. The TGI in [1], in [2], in experiment [3], in experiment [4], in [5] and in [7] was > 100 µM throughout. The TGI in [8] was > 100 µM; in experiment [9], > 100 µM; in [10], 7.49 µM.
Turning to `COc1cc(Cl)cc(-c2nn(-c3cccc(NC(=O)Nc4ccc(Cl)c(Cl)c4)c3)cc2-c2ccncc2)c1`, the GI50 is 3.16 µM in experiment [1]; 1.13 µM in experiment [2]; 1.89 µM in experiment [3]; 2.27 µM in experiment [4]; 1.96 µM in [6]; 3.89 µM in [7]. In addition, the GI50 in experiment [8] is 3.43 µM; in experiment [9], 2.52 µM; in experiment [10] it was 2.06 µM. The TGI in experiment [1] is 36.8 µM; in [2], 5.28 µM; in experiment [3], 18.2 µM; in [4], 13.9 µM; in [6] it was > 100 µM; in [7], > 100 µM. For the same compound, the TGI in [8] was > 100 µM; in [9], 10.9 µM; in experiment [10], 7.85 µM.
With `COC(=O)C(C(=O)OC)C(Br)C(Br)C(Br)c1ccccc1` (stereo unspecified), the GI50 in [1] was 21 µM; in experiment [2] it was 11.5 µM; in experiment [3] it was 1.74 µM; in experiment [4], 19.9 µM; in experiment [7] it was 18.4 µM; in [8], 3.29 µM. Also, the GI50 in experiment [9] is 12.9 µM; in experiment [10], 2.34 µM. Also, the TGI in experiment [1] was determined as 37.8 µM; in experiment [2], 24.6 µM; in experiment [3], 3.42 µM; in experiment [4], 37.2 µM; in experiment [7] it was 62.8 µM; in experiment [8], 11.4 µM. The TGI is 27.5 µM in [9] and 4.92 µM in experiment [10].
`NC(CSSCC(N)C(=O)O)C(=O)O` (stereo unspecified): the GI50 in experiment [2], in [3], in experiment [4], in experiment [5], in experiment [6] and in [7] was > 100 µM each time. Besides, the GI50 in [8], in [9] and in [10] was > 100 µM in each case. Moreover, the TGI in [2], in [3], in experiment [4], in [5], in experiment [6] and in experiment [7] was > 100 µM each time. Also, the TGI in [8], in experiment [9] and in [10] was > 100 µM throughout.
